Earlier results, collected in patent publication US20060275513A1, “Diet supplement for burning additional calories, providing sustained energy, supporting weight loss, and/or improving mental focus” (priority 2005, published 2006).

Settings: non-extended release format

Cn1c(=O)c2c(ncn2C)n(C)c1=O [Caffeine]
accepted half-life: 3.5 to 5 h
